Source: US8481732B2 (Incyte Corporation, priority 2009, dated 2013)
pIC50: −log10 of the molar value.

Target: T1, histamine H4 receptor (Homo sapiens, UniProt Q9H3N8)
T1 construct: expressed in transfected cells; host or cells: HEK293SFM cells (membrane preparation)
Experiment: H4 Membrane Binding Assay (3H-Histamine displacement)
Details: membranes of recombinant HEK293SFM cells, 10 nM 3H-Histamine, 1.5 hr at room temperature
Outline: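 Membranes from HEK293SFM cells expressing human H4 (also human H1–H3, mouse H4), prepared in ice-cold 50 mM Tris-HCl pH 7.5. [3H]-histamine displacement, nonspecific binding defined with 1000× unlabeled ligand. Bound radioactivity separated on PEI-treated GF/B filters and measured by liquid scintillation counting.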

| Compound | pIC50 |
| --- | --- |
| CN1CCN(c2cc(-c3ccc4c(c3)CN(C(=O)C3CCCCC3)CC4)nc(N)n2)CC1 [Example 105, 4-[2-(Cyclohexylcarbonyl)-1,2,3,4-tetrahydroisoquinolin-7-yl]-6-(4-methylpiperazin-1-yl)pyrimidin-2-amine] | 7.09 |
| CNC(=O)c1ccc(-c2ccc(N3CCc4ccc(-c5cc(N6CCN(C)CC6)nc(N)n5)cc4C3)nc2)cc1 [Example 19, 4-{6-[7-[2-Amino-6-(4-methylpiperazin-1-yl)pyrimidin-4-yl]-3,4-dihydroisoquinolin-2(1H)-yl]pyridin-3-yl}-N-methylbenzamide] | 6.29 |
| CC(NC(=O)N1CCc2ccc(-c3cc(N4CCN(C)CC4)nc(N)n3)cc2C1)c1ccn(C)n1 (stereo not drawn) [Example 127, 7-[2-Amino-6-(4-methylpiperazin-1-yl)pyrimidin-4-yl]-N-[1-(1-methyl-1H-pyrazol-3-yl)ethyl]-3,4-dihydroisoquinoline-2(1H)-carboxamide] | 6.60 |
| CN1CCN(c2cc(-c3ccc4c(c3)CN(C(=O)N[C@H]3C[C@@H]3c3ccccc3)CC4)nc(N)n2)CC1 (relative stereo) [Example 49, 7-[2-Amino-6-(4-methylpiperazin-1-yl)pyrimidin-4-yl]-N-(trans-2-phenylcyclopropyl)-3,4-dihydroisoquinoline-2(1H)-carboxamide] | 7.33 |
| CN1CCN(c2cc(-c3ccc4c(c3)CN(C(=O)NC3CCC(C(=O)N(C)C)CC3)CC4)nc(N)n2)CC1 (stereo not drawn) [Example 54, 7-[2-Amino-6-(4-methylpiperazin-1-yl)pyrimidin-4-yl]-N-{4-[(dimethylamino)carbonyl]cyclohexyl}-3,4-dihydroisoquinoline-2(1H)-carboxamide] | 6.36 |
| CN1CCN(c2cc(-c3cc4c(cc3F)CCN(C(=O)NC3CCCCC3)C4)nc(N)n2)CC1 [Example 76, 7-[2-Amino-6-(4-methylpiperazin-1-yl)pyrimidin-4-yl]-N-cyclohexyl-6-fluoro-3,4-dihydroisoquinoline-2(1H)-carboxamide] | 7.11 |
| CN1CCN(c2nc(N)nc3cc(C(=O)Nc4ccc(Oc5ccccc5)cc4)ccc23)CC1 [Example 35, 2-Amino-4-(4-methylpiperazin-1-yl)-N-(4-phenoxyphenyl)quinazoline-7-carboxamide] | 6.54 |
| CN1CCN(c2cc(-c3ccc4c(c3)CN(C(=O)Nc3nc(C(F)(F)F)cs3)CC4)nc(N)n2)CC1 [Example 50, 7-[2-Amino-6-(4-methylpiperazin-1-yl)pyrimidin-4-yl]-N-[4-(trifluoromethyl)-1,3-thiazol-2-yl]-3,4-dihydroisoquinoline-2(1H)-carboxamide] | 7.24 |
| Cc1cc2c(cc1-c1cc(N3CCN(C)CC3)nc(N)n1)CN(C(=O)Nc1ccc(Cl)cc1)CC2 [Example 77, 7-[2-Amino-6-(4-methylpiperazin-1-yl)pyrimidin-4-yl]-N-(4-chlorophenyl)-6-methyl-3,4-dihydroisoquinoline-2(1H)-carboxamide] | 7.02 |
| CN1CCN(c2cc(-c3ccc4c(c3)CN(C(=O)OC3CCN(S(=O)(=O)C5CCCC5)CC3)CC4)nc(N)n2)CC1 [Example 89, 1-(Cyclopentylsulfonyl)piperidin-4-yl 7-[2-amino-6-(4-methylpiperazin-1-yl)pyrimidin-4-yl]-3,4-dihydroisoquinoline-2(1H)-carboxylate] | 7.11 |
| CN1CCN(c2nc(N)nc3cc(C(=O)NC(C#N)c4ccccc4)ccc23)CC1 (stereo not drawn) [Example 129, 2-Amino-N-[cyano(phenyl)methyl]-4-(4-methylpiperazin-1-yl)quinazoline-7-carboxamide] | 6.81 |
| CN1CCN(c2cc(-c3ccc4c(c3)CN(C(=O)Cc3ccccc3)CC4)nc(N)n2)CC1 [Example 6, 4-(4-Methylpiperazin-1-yl)-6-[2-(phenylacetyl)-1,2,3,4-tetrahydroisoquinolin-7-yl]pyrimidin-2-amine] | 7.42 |
| COc1ccc(NC(=O)N2CCc3ccc(-c4cc(N5CCN(C)CC5)nc(N)n4)cc3C2)cn1 [Example 46, 7-[2-Amino-6-(4-methylpiperazin-1-yl)pyrimidin-4-yl]-N-(6-methoxypyridin-3-yl)-3,4-dihydroisoquinoline-2(1H)-carboxamide] | 7.15 |
| CN1CCN(c2cc(-c3ccc4c(c3)CN(C(=O)Cc3ccc(N5CCCC5)nc3)CC4)nc(N)n2)CC1 [Example 128, 4-(4-Methylpiperazin-1-yl)-6-{2-[(6-pyrrolidin-1-ylpyridin-3-yl)acetyl]-1,2,3,4-tetrahydroisoquinolin-7-yl}pyrimidin-2-amine] | 7.35 |
| COCC1(NC(=O)N2CCc3ccc(-c4cc(N5CCN(C)CC5)nc(N)n4)cc3C2)CCCC1 [Example 94, 7-[2-Amino-6-(4-methylpiperazin-1-yl)pyrimidin-4-yl]-N-[1-(methoxymethyl)cyclopentyl]-3,4-dihydroisoquinoline-2(1H)-carboxamide] | 6.83 |
| CO[C@@H]1Cc2ccccc2[C@@H]1NC(=O)N1CCc2ccc(-c3cc(N4CCN(C)CC4)nc(N)n3)cc2C1 [Example 57, 7-[2-Amino-6-(4-methylpiperazin-1-yl)pyrimidin-4-yl]-N-[(1S,2R)-2-methoxy-2,3-dihydro-1H-inden-1-yl]-3,4-dihydroisoquinoline-2(1H)-carboxamide] | 7.03 |
| CN1CCN(c2cc(-c3ccc4c(c3)CN(C(=O)CC(C)(C)C#N)CC4)nc(N)n2)CC1 [Example 121, 4-[7-[2-Amino-6-(4-methylpiperazin-1-yl)pyrimidin-4-yl]-3,4-dihydroisoquinolin-2(1H)-yl]-2,2-dimethyl-4-oxobutanenitrile] | 7.41 |

Results, then the compound that gave them:

| pIC50 | Compound |
| --- | --- |
| 7.44 | COC(=O)c1cccc(COc2cccc3c2CCN(C(=O)c2ccc4c(N5CCN(C)CC5)nc(N)nc4c2)C3)c1 [Example 209, Methyl 3-((2-(2-amino-4-(4-methylpiperazin-1-yl)quinazoline-7-carbonyl)-1,2,3,4-tetrahydroisoquinolin-5-yloxy)methyl)benzoate] |
| 7.19 | CN1CCN(c2nc(N)nc3cc(C(=O)NC(Cc4cccc(Oc5ccccc5)c4)C(=O)N(C)C)ccc23)CC1 (stereo not drawn) [Example 146, 2-Amino-N-[2-(dimethylamino)-2-oxo-1-(3-phenoxybenzyl)ethyl]-4-(4-methylpiperazin-1-yl)quinazoline-7-carboxamide] |
| 8.03 | COC(=O)c1cccc(COc2ccc3c(c2)C(NC(=O)c2ccc4c(N5CCN(C)CC5)nc(N)nc4c2)CCC3)c1 (stereo not drawn) [Example 204, Methyl 3-((8-(2-amino-4-(4-methylpiperazin-1-yl)quinazoline-7-carboxamido)-5,6,7,8-tetrahydronaphthalen-2-yloxy)methyl)benzoate] |
| 7.39 | CN1CCN(c2nc(N)nc3cc(C(=O)N4CCc5c(cccc5OCc5ccc(C#N)cc5)C4)ccc23)CC1 [Example 210, 4-((2-(2-Amino-4-(4-methylpiperazin-1-yl)quinazoline-7-carbonyl)-1,2,3,4-tetrahydroisoquinolin-5-yloxy)methyl)benzonitrile] |
| 8.18 | Cc1cccc(Oc2cccc(CNC(=O)c3ccc4c(N5CCN(C)CC5)nc(N)nc4c3)c2)c1C#N [Example 189, 2-Amino-N-[3-(2-cyano-3-methylphenoxy)benzyl]-4-(4-methylpiperazin-1-yl)quinazoline-7-carboxamide] |
| 8.02 | CN1CCN(c2nc(N)nc3cc(C(=O)NC(Cc4cccc(Oc5nsnc5Cl)c4)C(=O)N(C)C)ccc23)CC1 (stereo not drawn) [Example 168, 2-Amino-N-[1-{3-[(4-chloro-1,2,5-thiadiazol-3-yl)oxy]benzyl}-2-(dimethylamino)-2-oxoethyl]-4-(4-methylpiperazin-1-yl)quinazoline-7-carboxamide] |
| 7.72 | COc1cccc(-c2ccc(C[C@H](NC(=O)c3ccc4c(N5CCN(C)CC5)nc(N)nc4c3)C(=O)N(C)C)cc2)n1 [Example 153, 2-Amino-N-{(1S)-2-(dimethylamino)-1-[4-(6-methoxypyridin-2-yl)benzyl]-2-oxoethyl}-4-(4-methylpiperazin-1-yl)quinazoline-7-carboxamide] |
| 7.17 | Cc1ccc(C#N)c(Oc2cccc(CC(NC(=O)c3ccc4c(N5CCN(C)CC5)nc(N)nc4c3)C(=O)N(C)C)c2)n1 (stereo not drawn) [Example 173, 2-Amino-N-[1-{3-[(3-cyano-6-methylpyridin-2-yl)oxy]benzyl}-2-(dimethylamino)-2-oxoethyl]-4-(4-methylpiperazin-1-yl)quinazoline-7-carboxamide] |
| 7.85 | CN1CCN(c2nc(N)nc3cc(C(=O)N[C@@H](Cc4ccc(-c5cccc(C#N)c5)cc4)C(=O)N(C)C)ccc23)CC1 [Example 154, 2-Amino-N-[(1S)-1-[(3′-cyanobiphenyl-4-yl)methyl]-2-(dimethylamino)-2-oxoethyl]-4-(4-methylpiperazin-1-yl)quinazoline-7-carboxamide] |
| 7.60 | COc1ccc(C#N)c(Oc2cccc(CNC(=O)c3ccc4c(N5CCN(C)CC5)nc(N)nc4c3)c2)c1 [Example 180, 2-Amino-N-[3-(2-cyano-5-methoxyphenoxy)benzyl]-4-(4-methylpiperazin-1-yl)quinazoline-7-carboxamide] |
| 7.59 | CN1CCN(c2nc(N)nc3cc(C(=O)N[C@@H](Cc4ccc(-c5ccc(F)c(C(F)(F)F)c5)cc4)C(=O)N(C)C)ccc23)CC1 [Example 159, 2-Amino-N-((1S)-2-(dimethylamino)-1-{[4′-fluoro-3′-(trifluoromethyl)biphenyl-4-yl]methyl}-2-oxoethyl)-4-(4-methylpiperazin-1-yl)quinazoline-7-carboxamide] |
| 8.00 | CN1CCN(c2nc(N)nc3cc(C(=O)N[C@@H](Cc4ccc(-c5cccc(Cl)c5Cl)cc4)C(=O)N(C)C)ccc23)CC1 [Example 162, 2-Amino-N-[(1S)-1-[(2′,3′-dichlorobiphenyl-4-yl)methyl]-2-(dimethylamino)-2-oxoethyl]-4-(4-methylpiperazin-1-yl)quinazoline-7-carboxamide] |
| 7.39 | Cc1cnc(C)c(Oc2cccc(CNC(=O)c3ccc4c(N5CCN(C)CC5)nc(N)nc4c3)c2)n1 [Example 187, 2-Amino-N-{3-[(3,6-dimethylpyrazin-2-yl)oxy]benzyl}-4-(4-methylpiperazin-1-yl)quinazoline-7-carboxamide] |
